Experimental data as given in ChEMBL document CHEMBL5365531, “Structure-Activity Relationship Studies of SARS-CoV-2 Main Protease Inhibitors Containing 4-Fluorobenzothiazole-2-carbonyl Moieties” (J Med Chem, 2023).

Experiments:
[1] = Mutagenicity in Salmonella typhimurium TA100 assessed as inhibition of bacterial growth at 0.152 to 333 ug incubated in absence of S9 fraction by micro-Ames test; type: toxicity, Salmonella enterica subsp. enterica serovar Typhimurium; conditions: in vivo; dose 0.152-333 µg
[2] = Mutagenicity in Escherichia coli WP2uvrA assessed as inhibition of bacterial growth at 0.152 to 333 ug incubated in presence of S9 fraction by micro-Ames test; type: toxicity, subcellular; conditions: dose 0.152-333 µg
Vero C1008 = test: Cytotoxicity against African green monkey Vero E6 cells infected with SARS-CoV-2 WK-521 upto 100 uM incubated for 3 days by immunostaining analysis; type: toxicity, cell-based; conditions: chlorocebus sabaeus, vero c1008, 72 h, time 3 day
[3] = Mutagenicity in Salmonella typhimurium TA98 assessed as inhibition of bacterial growth at 0.152 to 333 ug incubated in presence of S9 fraction by micro-Ames test; type: toxicity, subcellular, Salmonella enterica subsp. enterica serovar Typhimurium; conditions: dose 0.152-333 µg
SARS-CoV-2 [4] = test: Antiviral activity against SARS-CoV-2 hCoV-19/Japan/TKYS02037/2022 (omicron BA.2) infected in Vero E6 cells preincubated with cells for 1 day followed by viral infection and measured after 3 days by qRT-PCR analysis; type: functional, organism-based; conditions: Severe acute respiratory syndrome coronavirus 2, hCoV-19/Japan/TKYS02037/2022 (omicron BA.2), Vero C1008
[5] = Mutagenicity in Salmonella typhimurium TA1535 assessed as inhibition of bacterial growth at 0.152 to 333 ug incubated in presence of S9 fraction by micro-Ames test; type: toxicity, subcellular, Salmonella enterica subsp. enterica serovar Typhimurium; conditions: dose 0.152-333 µg
PBMC [6] = test: Cytotoxicity against human PBMC cells assessed as reduction in cell viability at 10 uM incubated for 12 days by CCK-8 assay; type: toxicity, cell-based; conditions: 288 h, time 12 day
MOLT-4 [7] = test: Cytotoxicity against human MOLT-4 cells assessed as reduction in cell viability at 10 uM incubated for 12 days by CCK-8 assay; type: toxicity, cell-based; conditions: molt-4, 288 h, time 12 day
[8] = Mutagenicity in Salmonella typhimurium TA100 assessed as inhibition of bacterial growth at 0.152 to 333 ug incubated in presence of S9 fraction by micro-Ames test; type: toxicity, subcellular, Salmonella enterica subsp. enterica serovar Typhimurium; conditions: dose 0.152-333 µg
[9] = Mutagenicity in Salmonella typhimurium TA1537 assessed as inhibition of bacterial growth at 0.152 to 333 ug incubated in absence of S9 fraction by micro-Ames test; type: toxicity, Salmonella enterica subsp. enterica serovar Typhimurium; conditions: in vivo; dose 0.152-333 µg
SARS-CoV-2 [10] = test: Antiviral activity against SARS-CoV-2 infected in Vero E6 cells preincubated with cells for 1 day in presence of HCl treated compound followed by viral infection and measured after 3 days by qRT-PCR analysis; type: functional, organism-based; conditions: Severe acute respiratory syndrome coronavirus 2, Vero C1008
MT2 [11] = test: Cytotoxicity against human MT2 cells assessed as reduction in cell viability at 10 uM incubated for 12 days by CCK-8 assay; type: toxicity, cell-based; conditions: mt2, 288 h, time 12 day
[12] = Mutagenicity in Salmonella typhimurium TA1535 assessed as inhibition of bacterial growth at 0.152 to 333 ug incubated in absence of S9 fraction by micro-Ames test; type: toxicity, Salmonella enterica subsp. enterica serovar Typhimurium; conditions: in vivo; dose 0.152-333 µg
[13] = Mutagenicity in Salmonella typhimurium TA1537 assessed as inhibition of bacterial growth at 0.152 to 333 ug incubated in presence of S9 fraction by micro-Ames test; type: toxicity, subcellular, Salmonella enterica subsp. enterica serovar Typhimurium; conditions: dose 0.152-333 µg
[14] = Cytotoxicity against African green monkey Vero E6 cells incubated for 3 days by WST-8 assay; type: toxicity, cell-based, Vero C1008; conditions: chlorocebus sabaeus, time 3 day
[15] = Mutagenicity in Salmonella typhimurium TA98 assessed as inhibition of bacterial growth at 0.152 to 333 ug incubated in absence of S9 fraction by micro-Ames test; type: toxicity, Salmonella enterica subsp. enterica serovar Typhimurium; conditions: in vivo; dose 0.152-333 µg
SARS-CoV-2 [16] = test: Antiviral activity against SARS-CoV-2 infected in Vero E6 cells preincubated with cells for 1 day followed by viral infection and measured after 3 days by qRT-PCR analysis; type: functional, organism-based; conditions: Severe acute respiratory syndrome coronavirus 2, Vero C1008
SARS-CoV-2 [17] = test: Antiviral activity against SARS-CoV-2 infected in Vero E6 cells preincubated with cells for 1 day in absence of HCl followed by viral infection and measured after 3 days by qRT-PCR analysis; type: functional, organism-based; conditions: Severe acute respiratory syndrome coronavirus 2, Vero C1008
[18] = Mutagenicity in Escherichia coli WP2uvrA assessed as inhibition of bacterial growth at 0.152 to 333 ug incubated in absence of S9 fraction by micro-Ames test; type: toxicity; conditions: in vivo; dose 0.152-333 µg
[19] = Cytotoxicity against African green monkey Vero E6 cells in presence of P-glycoprotein inhibitor, CP100356; type: toxicity, cell-based, Vero C1008; conditions: chlorocebus sabaeus, with CP100356 (P-glycoprotein inhibitor)
[20] = Mutagenicity in Escherichia coli WP2uvrA assessed as fold increase in number of revertants at 0.152 to 333 ug incubated in presence of S9 fraction by micro-Ames test relative to control; type: toxicity, subcellular; conditions: dose 0.152-333 µg
[21] = Mutagenicity in Salmonella typhimurium TA98 assessed as fold increase in number of revertants at 0.152 to 333 ug incubated in absence of S9 fraction by micro-Ames test relative to control; type: toxicity, Salmonella enterica subsp. enterica serovar Typhimurium; conditions: in vivo; dose 0.152-333 µg
[22] = Stability of compound in 50% MeCN in H2O containing 0.05% trifluoroacetic acid assessed as (1R,2S,5S)-3-((S)-3,3-dimethyl-2-(2,2,2-trifluoroacetamido)butanoyl)-N-((S)-1-(4-fluorobenzo[d]thiazol-2-yl)-1-oxo-3-((S)-2-oxopyrrolidin-3-yl)propan-2-yl)-6,6-dimethyl-3-azabicyclo[3.1.0]hexane-2-carboxamide formation at 5 degreeC measured after 24 hrs by RP-HPLC analysis; type: physicochemical
[23] = Mutagenicity in Salmonella typhimurium TA98 assessed as fold increase in number of revertants at 0.152 to 333 ug incubated in presence of S9 fraction by micro-Ames test relative to control; type: toxicity, subcellular, Salmonella enterica subsp. enterica serovar Typhimurium; conditions: dose 0.152-333 µg
[24] = Mutagenicity in Escherichia coli WP2uvrA assessed as fold increase in number of revertants at 0.152 to 333 ug incubated in absence of S9 fraction by micro-Ames test relative to control; type: toxicity; conditions: in vivo; dose 0.152-333 µg
SARS-CoV-2 [25] = test: Antiviral activity against SARS-CoV-2 JPN/TY/WK-521 infected in Vero E6 cells preincubated with cells for 1 day followed by viral infection and measured after 3 days by qRT-PCR analysis; type: functional, organism-based; conditions: Severe acute respiratory syndrome coronavirus 2, JPN/TY/WK-521, Vero C1008
[26] = Mutagenicity in Salmonella typhimurium TA100 assessed as fold increase in number of revertants at 0.152 to 333 ug incubated in absence of S9 fraction by micro-Ames test relative to control; type: toxicity, Salmonella enterica subsp. enterica serovar Typhimurium; conditions: in vivo; dose 0.152-333 µg
[27] = Mutagenicity in Salmonella typhimurium TA1535 assessed as fold increase in number of revertants at 0.152 to 333 ug incubated in absence of S9 fraction by micro-Ames test relative to control; type: toxicity, Salmonella enterica subsp. enterica serovar Typhimurium; conditions: in vivo; dose 0.152-333 µg
[28] = Mutagenicity in Salmonella typhimurium TA1537 assessed as fold increase in number of revertants at 0.152 to 333 ug incubated in presence of S9 fraction by micro-Ames test relative to control; type: toxicity, subcellular, Salmonella enterica subsp. enterica serovar Typhimurium; conditions: dose 0.152-333 µg
SARS-CoV-2 [29] = test: Antiviral activity against SARS-CoV-2 JPN/TY/WK-521 infected in Vero E6 cells assessed as fold change preincubated with cells for 1 day followed by viral infection and measured after 3 days by qRT-PCR analysis relative to TKB245; type: functional, Severe acute respiratory syndrome coronavirus 2; conditions: time 4 day
[30] = Cytotoxicity against human A549-hACE2-TMPRSS2 cells; type: toxicity, cell-based
MT2 [31] = test: Cytotoxicity against human MT2 cells assessed as reduction in cell viability at 3 uM incubated for 12 days by CCK-8 assay; type: toxicity, cell-based; conditions: mt2, 288 h, time 12 day
[32] = Mutagenicity in Salmonella typhimurium TA100 assessed as fold increase in number of revertants at 0.152 to 333 ug incubated in presence of S9 fraction by micro-Ames test relative to control; type: toxicity, subcellular, Salmonella enterica subsp. enterica serovar Typhimurium; conditions: dose 0.152-333 µg
[33] = Oral bioavailability in PXB mouse at 10 mg/kg measured for 24 hrs; type: ADME, organism-based; conditions: in vivo
SARS-CoV-2 [34] = test: Antiviral activity against SARS-CoV-2 assessed as fold change relative to YH-53; type: functional, Severe acute respiratory syndrome coronavirus 2
[35] = target: Replicase polyprotein 1ab (Severe acute respiratory syndrome coronavirus 2, UniProt P0DTD1); test: Inhibition of untagged SARS-CoV-2 JPN/TY/WK-521 Main protease using FRET-based UIVT3 as substrate by continuous fluorescence assay
[36] = Stability of compound in 50% MeCN in H2O incubated for 24 hrs at room temperature by RP-HPLC analysis; type: physicochemical
[37] = Stability of compound in DMSO incubated for 7 days at -18 degreeC by RP-HPLC analysis; type: physicochemical; conditions: 168 h; time 7 day
SARS-CoV-2 [38] = test: Antiviral activity against SARS-CoV-2 JPN/TY/WK-521 infected in Vero E6 cells assessed as inhibition of viral replication preincubated with cells for 1 day followed by viral infection and measured after 3 to 4 days by qRT-PCR analysis; type: functional, organism-based; conditions: Severe acute respiratory syndrome coronavirus 2, JPN/TY/WK-521, Vero C1008
PBMC [39] = test: Cytotoxicity against human PBMC cells assessed as reduction in cell viability at 3 uM incubated for 12 days by CCK-8 assay; type: toxicity, cell-based; conditions: 288 h, time 12 day
[40] = Mutagenicity in Salmonella typhimurium TA1535 assessed as fold increase in number of revertants at 0.152 to 333 ug incubated in presence of S9 fraction by micro-Ames test relative to control; type: toxicity, subcellular, Salmonella enterica subsp. enterica serovar Typhimurium; conditions: dose 0.152-333 µg
[41] = Mutagenicity in Salmonella typhimurium TA1537 assessed as fold increase in number of revertants at 0.152 to 333 ug incubated in absence of S9 fraction by micro-Ames test relative to control; type: toxicity, Salmonella enterica subsp. enterica serovar Typhimurium; conditions: in vivo; dose 0.152-333 µg
[42] = Cytotoxicity against human HepG2 cells; type: toxicity, cell-based
[43] = Cytotoxicity against human HeLa cells expressing ACE2 and TMPRSS2; type: toxicity, cell-based
MOLT-4 [44] = test: Cytotoxicity against human MOLT-4 cells assessed as reduction in cell viability at 3 uM incubated for 12 days by CCK-8 assay; type: toxicity, cell-based; conditions: molt-4, 288 h, time 12 day

## CC(C)(C)[C@H](NC(=O)C(F)(F)F)C(=O)N1C[C@H]2[C@@H]([C@H]1C(=O)N[C@H](C#N)C[C@@H]1CCNC1=O)C2(C)C
[1]
  Activity: Non-Toxic
[2]
  Activity: Non-Toxic
Vero C1008
  Activity: Non-Toxic
[3]
  Activity: Non-Toxic
SARS-CoV-2 [4]
  EC50: 1400 nM
[5]
  Activity: Non-Toxic
PBMC [6]
  Activity: Non-Toxic
MOLT-4 [7]
  Activity: Non-Toxic
[8]
  Activity: Non-Toxic
[9]
  Activity: Non-Toxic
SARS-CoV-2 [10]
  EC50: 2500 nM
MT2 [11]
  Activity: Non-Toxic
[12]
  Activity: Non-Toxic
[13]
  Activity: Non-Toxic
[14]
  CC50 at 72 h: > 100000 nM
[15]
  Activity: Non-Toxic
SARS-CoV-2 [16]
  EC50: 1600 nM
SARS-CoV-2 [17]
  EC50: 1400 nM
[18]
  Activity: Non-Toxic

## CC(C)(C)[C@H](NC(=O)C(F)(F)F)C(=O)N1C[C@H]2[C@@H]([C@H]1C(=S)N[C@@H](C[C@@H]1CCNC1=O)C(=O)c1nc3c(F)cccc3s1)C2(C)C
[1]
  Activity: Non-Toxic
[19]
  CC50: > 100000 nM
[20]
  fold change (FC): > 2
[2]
  Activity: Non-Toxic
Vero C1008
  Activity: Non-Toxic
[21]
  fold change (FC): > 2
[22]
  Stability: Unstable
[3]
  Activity: Non-Toxic
SARS-CoV-2 [4]
  EC50: 160 nM
[23]
  fold change (FC): > 2
[5]
  Activity: Non-Toxic
[24]
  fold change (FC): > 2
SARS-CoV-2 [25]
  EC50: 310 nM
[26]
  fold change (FC): > 2
[27]
  fold change (FC): > 2
[8]
  Activity: Non-Toxic
[9]
  Activity: Non-Toxic
SARS-CoV-2 [10]
  EC50: 320 nM
[12]
  Activity: Non-Toxic
[28]
  fold change (FC): > 2
[13]
  Activity: Non-Toxic
SARS-CoV-2 [29]
  fold change (FC): 11
[30]
  CC50: > 100000 nM
MT2 [31]
  Activity: Non-Toxic
[32]
  fold change (FC): > 2
[14]
  CC50 at 72 h: > 100000 nM
[15]
  Activity: Non-Toxic
[33]
  bioavailability: 72%
SARS-CoV-2 [34]
  fold change (FC): 0.085
[35]
  IC50: 88 nM
[36]
  Stability: Stable
[37]
  Stability: Stable
SARS-CoV-2 [17]
  EC50: 310 nM
SARS-CoV-2 [38]
  EC50: 220 nM
PBMC [39]
  Activity: Non-Toxic
[40]
  fold change (FC): > 2
[41]
  fold change (FC): > 2
[42]
  CC50: > 200000 nM
[43]
  CC50: > 100000 nM
MOLT-4 [44]
  Activity: Non-Toxic
[18]
  Activity: Non-Toxic
